Source: the kinase profiling compilation of Christmann-Franck et al. (2016)

Tests used:
Test in all cases: radiometric filter-binding kinase assay, Kinase HotSpot
Conditions in all cases: compound 0.5 µM; ATP 10 µM
[1] = biological target: PRKCG (human) (UniProt P05129)
[2] = biological target: CSNK2A2 (human) (UniProt P19784)
[3] = biological target: STK38 (human) (UniProt Q15208)
[4] = biological target: TLK2 (human) (UniProt Q86UE8)
[5] = biological target: PDGFRB (human) (UniProt P09619)
[6] = biological target: IRAK1 (human) (UniProt P51617)
[7] = biological target: HIPK4 (human) (UniProt Q8NE63)
HIPK4 (human), sequence (Q8NE63 whole entry, looked up): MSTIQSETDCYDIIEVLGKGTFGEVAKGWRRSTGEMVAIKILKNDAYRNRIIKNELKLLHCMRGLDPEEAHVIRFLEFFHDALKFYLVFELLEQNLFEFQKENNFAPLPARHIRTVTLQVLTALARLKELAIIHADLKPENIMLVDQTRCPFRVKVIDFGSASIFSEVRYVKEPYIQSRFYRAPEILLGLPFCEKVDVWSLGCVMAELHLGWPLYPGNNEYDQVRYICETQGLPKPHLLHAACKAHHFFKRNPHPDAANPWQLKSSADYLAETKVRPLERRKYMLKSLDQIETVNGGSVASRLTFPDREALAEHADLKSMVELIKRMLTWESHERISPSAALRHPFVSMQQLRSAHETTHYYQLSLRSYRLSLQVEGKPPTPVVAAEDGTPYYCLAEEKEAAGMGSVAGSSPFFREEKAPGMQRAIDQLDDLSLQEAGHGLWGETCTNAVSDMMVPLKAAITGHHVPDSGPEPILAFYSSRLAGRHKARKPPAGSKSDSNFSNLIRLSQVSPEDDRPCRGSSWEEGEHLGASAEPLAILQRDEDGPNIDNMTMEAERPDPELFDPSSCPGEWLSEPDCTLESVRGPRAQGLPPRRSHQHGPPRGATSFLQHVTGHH

[8] = biological target: EPHA6 (human) (UniProt Q9UF33)
[9] = biological target: DMPK (human) (UniProt Q09013)
[10] = biological target: PTK6 (human) (UniProt Q13882)
PTK6 (human), sequence (Q13882 whole entry, looked up): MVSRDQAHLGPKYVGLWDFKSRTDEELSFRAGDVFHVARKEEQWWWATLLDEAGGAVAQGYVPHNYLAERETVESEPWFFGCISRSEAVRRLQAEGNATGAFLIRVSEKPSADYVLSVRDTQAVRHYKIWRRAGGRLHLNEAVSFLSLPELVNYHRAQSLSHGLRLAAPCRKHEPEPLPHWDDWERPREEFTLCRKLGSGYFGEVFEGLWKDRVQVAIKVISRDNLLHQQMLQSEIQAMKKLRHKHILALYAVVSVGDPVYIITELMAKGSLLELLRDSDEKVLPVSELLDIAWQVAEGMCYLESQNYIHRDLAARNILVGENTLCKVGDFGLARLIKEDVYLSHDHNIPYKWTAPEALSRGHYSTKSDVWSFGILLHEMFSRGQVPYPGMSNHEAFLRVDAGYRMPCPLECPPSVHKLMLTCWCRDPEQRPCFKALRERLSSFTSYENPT

[11] = biological target: STK24 (human) (UniProt Q9Y6E0)
[12] = biological target: LCK (human) (UniProt P06239)
[13] = biological target: EPHB2 (human) (UniProt P29323)
[14] = biological target: NEK4 (human) (UniProt P51957)
[15] = biological target: SRPK2 (human) (UniProt P78362)
[16] = biological target: ULK3 (human) (UniProt Q6PHR2)
[17] = biological target: MAPK12 (human) (UniProt P53778)
[18] = biological target: NEK7 (human) (UniProt Q8TDX7)
[19] = biological target: DYRK1A (human) (UniProt Q13627)
[20] = biological target: CDC42BPA (human) (UniProt Q5VT25)
CDC42BPA (human), sequence (Q5VT25 whole entry, looked up): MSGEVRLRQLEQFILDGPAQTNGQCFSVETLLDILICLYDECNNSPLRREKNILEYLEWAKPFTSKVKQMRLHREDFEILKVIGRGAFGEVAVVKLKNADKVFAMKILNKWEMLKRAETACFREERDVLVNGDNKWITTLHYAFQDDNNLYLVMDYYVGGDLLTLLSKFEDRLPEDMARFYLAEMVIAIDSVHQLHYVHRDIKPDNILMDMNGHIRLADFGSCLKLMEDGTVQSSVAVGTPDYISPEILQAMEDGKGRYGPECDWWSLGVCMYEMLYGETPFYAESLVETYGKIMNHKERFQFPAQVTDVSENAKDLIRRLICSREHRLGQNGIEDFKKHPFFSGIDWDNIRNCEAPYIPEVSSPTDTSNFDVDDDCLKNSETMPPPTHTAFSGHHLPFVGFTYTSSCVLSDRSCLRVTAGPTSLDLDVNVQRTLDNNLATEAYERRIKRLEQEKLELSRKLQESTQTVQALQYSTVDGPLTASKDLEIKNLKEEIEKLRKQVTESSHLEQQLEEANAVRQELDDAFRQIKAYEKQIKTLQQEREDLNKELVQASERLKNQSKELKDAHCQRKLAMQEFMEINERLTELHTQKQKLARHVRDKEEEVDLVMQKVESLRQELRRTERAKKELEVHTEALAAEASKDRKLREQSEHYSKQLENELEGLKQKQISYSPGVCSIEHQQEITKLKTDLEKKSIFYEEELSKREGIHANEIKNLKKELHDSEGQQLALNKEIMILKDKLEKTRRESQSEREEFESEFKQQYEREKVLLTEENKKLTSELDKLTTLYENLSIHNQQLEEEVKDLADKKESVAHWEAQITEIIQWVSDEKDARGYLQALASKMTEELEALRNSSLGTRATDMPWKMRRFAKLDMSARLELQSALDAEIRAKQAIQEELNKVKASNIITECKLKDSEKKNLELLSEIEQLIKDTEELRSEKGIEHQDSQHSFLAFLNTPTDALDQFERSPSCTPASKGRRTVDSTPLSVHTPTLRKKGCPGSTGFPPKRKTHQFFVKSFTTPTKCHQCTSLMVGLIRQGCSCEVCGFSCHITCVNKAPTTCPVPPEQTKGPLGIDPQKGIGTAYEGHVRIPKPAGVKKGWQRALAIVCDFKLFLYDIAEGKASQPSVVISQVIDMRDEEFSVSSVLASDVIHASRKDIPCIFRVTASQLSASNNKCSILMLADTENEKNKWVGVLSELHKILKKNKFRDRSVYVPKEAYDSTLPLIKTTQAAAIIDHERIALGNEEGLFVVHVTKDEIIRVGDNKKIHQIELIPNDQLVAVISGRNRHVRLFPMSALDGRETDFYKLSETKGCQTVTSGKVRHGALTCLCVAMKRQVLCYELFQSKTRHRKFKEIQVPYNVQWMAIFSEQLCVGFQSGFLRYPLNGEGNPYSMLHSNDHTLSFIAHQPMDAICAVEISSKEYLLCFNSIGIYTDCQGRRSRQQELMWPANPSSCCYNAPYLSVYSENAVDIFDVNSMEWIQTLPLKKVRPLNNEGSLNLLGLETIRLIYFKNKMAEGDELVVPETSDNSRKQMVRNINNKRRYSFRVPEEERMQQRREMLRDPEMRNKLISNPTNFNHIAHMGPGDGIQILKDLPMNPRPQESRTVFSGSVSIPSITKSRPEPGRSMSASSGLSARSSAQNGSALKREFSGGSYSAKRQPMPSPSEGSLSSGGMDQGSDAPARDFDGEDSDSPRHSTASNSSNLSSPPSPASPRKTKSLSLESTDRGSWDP

[21] = biological target: TTK (human) (UniProt P33981)
[22] = biological target: TGFBR2 (human) (UniProt P37173)
[23] = biological target: DAPK1 (human) (UniProt P53355)
[24] = biological target: PRKACG (human) (UniProt P22612)
[25] = biological target: CHEK1 (human) (UniProt O14757)
[26] = biological target: TYRO3 (human) (UniProt Q06418)
TYRO3 (human), sequence (Q06418 whole entry, looked up): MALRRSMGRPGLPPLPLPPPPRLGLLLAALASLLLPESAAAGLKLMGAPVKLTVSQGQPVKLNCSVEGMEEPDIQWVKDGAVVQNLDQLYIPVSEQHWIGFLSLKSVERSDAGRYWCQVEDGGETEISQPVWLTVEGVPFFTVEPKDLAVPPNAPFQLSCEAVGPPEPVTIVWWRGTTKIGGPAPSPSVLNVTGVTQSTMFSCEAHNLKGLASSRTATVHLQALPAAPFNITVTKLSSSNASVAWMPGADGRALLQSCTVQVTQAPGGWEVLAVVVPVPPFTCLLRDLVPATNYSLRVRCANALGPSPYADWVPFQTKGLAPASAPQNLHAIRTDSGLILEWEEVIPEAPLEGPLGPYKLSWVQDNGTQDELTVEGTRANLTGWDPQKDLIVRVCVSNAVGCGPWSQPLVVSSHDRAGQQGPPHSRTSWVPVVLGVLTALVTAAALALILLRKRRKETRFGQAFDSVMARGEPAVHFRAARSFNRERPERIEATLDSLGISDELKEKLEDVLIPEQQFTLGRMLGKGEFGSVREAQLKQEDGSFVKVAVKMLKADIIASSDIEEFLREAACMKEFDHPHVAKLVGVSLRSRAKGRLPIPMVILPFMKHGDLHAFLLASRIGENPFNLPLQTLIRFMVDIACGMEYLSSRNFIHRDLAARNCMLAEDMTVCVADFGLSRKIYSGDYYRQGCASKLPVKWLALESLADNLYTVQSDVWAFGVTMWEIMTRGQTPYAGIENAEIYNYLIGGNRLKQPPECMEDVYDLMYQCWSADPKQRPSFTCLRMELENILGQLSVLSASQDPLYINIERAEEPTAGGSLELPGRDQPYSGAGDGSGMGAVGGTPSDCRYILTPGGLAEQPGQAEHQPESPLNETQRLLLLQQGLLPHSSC

[27] = biological target: ACVRL1 (human) (UniProt P37023)
[28] = biological target: LTK (human) (UniProt P29376)
[29] = biological target: CAMKK2 (human) (UniProt Q96RR4)
[30] = biological target: MYO3B (human) (UniProt Q8WXR4)
[31] = biological target: EGFR (human) (UniProt P00533)
[32] = biological target: PIM1 (human) (UniProt P11309)
[33] = biological target: OXSR1 (human) (UniProt O95747)
[34] = biological target: ADRBK1 (human) (UniProt P25098)
[35] = biological target: CAMK1D (human) (UniProt Q8IU85)
[36] = biological target: TSSK1B (human) (UniProt Q9BXA7)
[37] = biological target: RPS6KB2 (human) (UniProt Q9UBS0)
[38] = biological target: ABL1 (human) (UniProt P00519)
[39] = biological target: FGFR3 (human) (UniProt P22607)

STK38 (human), sequence (Q15208 whole entry, looked up): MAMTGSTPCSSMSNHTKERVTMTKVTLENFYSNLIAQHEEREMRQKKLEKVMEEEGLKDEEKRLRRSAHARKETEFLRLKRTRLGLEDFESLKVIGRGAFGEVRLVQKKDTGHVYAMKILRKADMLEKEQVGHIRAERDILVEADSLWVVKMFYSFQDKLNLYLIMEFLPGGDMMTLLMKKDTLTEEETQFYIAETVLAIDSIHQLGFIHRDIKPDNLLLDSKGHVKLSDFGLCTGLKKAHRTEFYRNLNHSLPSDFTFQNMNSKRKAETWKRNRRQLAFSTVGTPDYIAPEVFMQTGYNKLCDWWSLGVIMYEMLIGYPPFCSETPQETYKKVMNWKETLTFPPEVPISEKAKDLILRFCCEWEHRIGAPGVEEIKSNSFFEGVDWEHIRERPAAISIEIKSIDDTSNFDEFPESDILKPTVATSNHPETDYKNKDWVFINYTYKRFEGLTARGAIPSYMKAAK
TLK2 (human), sequence (Q86UE8 whole entry, looked up): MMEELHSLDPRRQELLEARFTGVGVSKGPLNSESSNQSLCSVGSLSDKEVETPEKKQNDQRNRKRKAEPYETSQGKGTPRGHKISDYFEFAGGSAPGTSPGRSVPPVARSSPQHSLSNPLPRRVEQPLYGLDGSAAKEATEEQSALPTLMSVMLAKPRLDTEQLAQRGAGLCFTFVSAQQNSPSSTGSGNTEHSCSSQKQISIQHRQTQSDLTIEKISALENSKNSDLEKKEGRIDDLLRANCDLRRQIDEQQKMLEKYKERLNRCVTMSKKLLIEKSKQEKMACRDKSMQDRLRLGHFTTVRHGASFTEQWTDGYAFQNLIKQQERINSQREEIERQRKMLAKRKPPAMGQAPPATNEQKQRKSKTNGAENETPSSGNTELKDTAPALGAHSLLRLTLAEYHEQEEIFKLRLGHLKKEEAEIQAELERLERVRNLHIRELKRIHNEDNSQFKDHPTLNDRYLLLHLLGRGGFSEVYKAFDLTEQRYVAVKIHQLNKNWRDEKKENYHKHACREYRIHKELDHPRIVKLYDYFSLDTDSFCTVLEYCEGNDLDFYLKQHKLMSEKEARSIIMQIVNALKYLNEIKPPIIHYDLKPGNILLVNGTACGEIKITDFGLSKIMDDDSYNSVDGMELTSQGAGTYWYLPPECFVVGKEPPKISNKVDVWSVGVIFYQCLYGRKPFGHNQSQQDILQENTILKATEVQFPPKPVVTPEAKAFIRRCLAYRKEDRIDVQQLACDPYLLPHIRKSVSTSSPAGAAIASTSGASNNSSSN

In the case of `COc1cc2nccc(Oc3ccc(NC(=S)NC(=O)c4ccccc4C)cc3)c2cc1OC`, the residual activity [1] was 100%, the residual activity [2] was 96.6% and the residual activity [3] was 107%. For the same molecule, the residual activity [4] was 85.3%, the residual activity [5] was 26.7% and the residual activity [6] was 99.6%. For the same molecule, the residual activity [7] was 86%, the residual activity [8] was 33% and the residual activity [9] was 102%. For the same molecule, the residual activity [10] was 33.9%, the residual activity [11] was 101% and the residual activity [12] was 1.62%. For the same molecule, the residual activity [13] was 93.5%, the residual activity [14] was 97.6% and the residual activity [15] was 93.4%. The residual activity [16] was 86.8%, the residual activity [17] was 96.8% and the residual activity [18] was 106%. For the same molecule, the residual activity [19] was 95.4%, the residual activity [20] was 93.9% and the residual activity [21] was 101%. The residual activity [22] was 96.7%, the residual activity [23] was 101% and the residual activity [24] was 107%. It also gave a residual activity [25] of 95.1%, a residual activity [26] of 92.2% and a residual activity [27] of 91.7%. It also gave a residual activity [28] of 86.1%, a residual activity [29] of 75% and a residual activity [30] of 83.4%. For the same molecule, the residual activity [31] was 89.7%, the residual activity [32] was 97.6% and the residual activity [33] was 106%. It also gave a residual activity [34] of 95.6%, a residual activity [35] of 72.5% and a residual activity [36] of 83.6%. The residual activity [37] was 97.3%, the residual activity [38] was 50.6% and the residual activity [39] was 88.8%.
Work on `Cc1cc2ncc(-c3ccccc3)nc2cc1C` yielded a residual activity [1] of 96.9%, a residual activity [2] of 90.3% and a residual activity [3] of 94.7%. For the same molecule, the residual activity [4] was 100%, the residual activity [5] was 89.1% and the residual activity [6] was 114%. The residual activity [7] was 120%, the residual activity [8] was 93% and the residual activity [9] was 102%. It also gave a residual activity [10] of 93.6%, a residual activity [11] of 94.5% and a residual activity [12] of 99.5%. It also gave a residual activity [13] of 96.7%, a residual activity [14] of 99.3% and a residual activity [15] of 95.3%. The residual activity [16] was 86.4%, the residual activity [17] was 87.3% and the residual activity [18] was 102%. For the same molecule, the residual activity [19] was 89.9%, the residual activity [20] was 81.2% and the residual activity [21] was 91%. For the same molecule, the residual activity [22] was 130%, the residual activity [23] was 88.4% and the residual activity [24] was 95.8%. It also gave a residual activity [25] of 94.2%, a residual activity [26] of 90.9% and a residual activity [27] of 97.9%. For the same molecule, the residual activity [28] was 90.3%, the residual activity [29] was 91.8% and the residual activity [30] was 99%. The residual activity [31] was 84.5%, the residual activity [32] was 101% and the residual activity [33] was 85.6%. It also gave a residual activity [34] of 92.5%, a residual activity [35] of 100% and a residual activity [36] of 113%. For the same molecule, the residual activity [37] was 98.7%, the residual activity [38] was 99.6% and the residual activity [39] was 98%.
